Test results as given in paper PMC11570842 (The Journal of Biological Chemistry, 2024).

Biological target: T1, Ubp2 (Saccharomyces cerevisiae, UniProt Q01476)
T1 sequence (Q01476 1-1272): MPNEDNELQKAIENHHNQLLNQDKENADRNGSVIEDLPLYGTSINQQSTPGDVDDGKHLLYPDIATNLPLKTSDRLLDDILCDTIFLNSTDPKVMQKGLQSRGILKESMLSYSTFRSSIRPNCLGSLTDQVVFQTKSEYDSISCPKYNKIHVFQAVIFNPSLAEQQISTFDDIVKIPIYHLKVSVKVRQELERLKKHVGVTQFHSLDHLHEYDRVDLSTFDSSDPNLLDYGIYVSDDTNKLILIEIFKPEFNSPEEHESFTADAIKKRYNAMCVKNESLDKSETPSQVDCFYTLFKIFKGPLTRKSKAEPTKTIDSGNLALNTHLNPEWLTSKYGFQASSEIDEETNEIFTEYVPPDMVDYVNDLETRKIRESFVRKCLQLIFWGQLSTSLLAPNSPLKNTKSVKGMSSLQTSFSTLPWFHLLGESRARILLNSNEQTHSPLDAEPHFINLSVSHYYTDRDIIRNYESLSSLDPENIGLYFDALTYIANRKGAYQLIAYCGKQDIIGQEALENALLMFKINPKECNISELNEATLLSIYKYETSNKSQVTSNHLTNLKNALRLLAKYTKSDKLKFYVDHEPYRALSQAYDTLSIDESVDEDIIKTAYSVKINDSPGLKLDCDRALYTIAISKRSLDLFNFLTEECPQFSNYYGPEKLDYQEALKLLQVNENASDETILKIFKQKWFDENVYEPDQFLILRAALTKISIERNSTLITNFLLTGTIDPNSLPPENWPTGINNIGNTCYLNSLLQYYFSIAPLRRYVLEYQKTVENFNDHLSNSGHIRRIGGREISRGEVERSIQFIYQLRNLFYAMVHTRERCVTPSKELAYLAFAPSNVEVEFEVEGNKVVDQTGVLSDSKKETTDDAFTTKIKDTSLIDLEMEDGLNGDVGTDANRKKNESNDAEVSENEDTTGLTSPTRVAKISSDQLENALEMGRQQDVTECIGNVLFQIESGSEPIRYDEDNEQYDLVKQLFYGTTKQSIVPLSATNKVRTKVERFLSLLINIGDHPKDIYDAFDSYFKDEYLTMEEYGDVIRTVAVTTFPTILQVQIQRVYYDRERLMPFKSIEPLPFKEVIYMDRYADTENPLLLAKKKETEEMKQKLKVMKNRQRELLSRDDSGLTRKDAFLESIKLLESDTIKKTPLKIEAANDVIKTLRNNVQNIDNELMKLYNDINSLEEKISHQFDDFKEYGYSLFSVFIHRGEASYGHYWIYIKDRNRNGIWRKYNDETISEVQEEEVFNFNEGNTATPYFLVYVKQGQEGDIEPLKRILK
Conditions: 100 uM PR-619, 5 min preincubation; 0.75 uM Ub-Rho, 50 mM Tris-HCl pH 7.5, 150 mM NaCl, 30 C; activity abrogated

Structure (SMILES): N#CSc1cc(SC#N)c(N)nc1N [PR-619]
- fluorogenic Ub-rhodamine 110 cleavage: pan DUB inhibitor PR-619 and the cysteine alkylator iodoacetamide (IAA) abrogated Ubp2 enzymatic activity
